According to patent publication US20240190904A1, “Heteroaryl compounds as inhibitors of RIP2 kinase, composition and application thereof” (Accro Bioscience (HK) Limited, priority 2021, published 2024):
pKd: −log10 of the molar value.

Key:
RIP2 kinase = RIP2 kinase (Homo sapiens (Human), UniProt O43353); experiment: Binding affinity assay (Kd)
Description: For most assays, kinase-tagged T7 phage strains were prepared in an E. coli host derived from the BL21 strain. E. coli were grown to log-phase and infected with T7 phage and incubated with shaking at 32° C. until lysis. The lysates were centrifuged and filtered to remove cell debris. The remaining kinases were produced in HEK-293 cells and subsequently tagged with DNA for qPCR detection. Streptavidin coated magnetic beads were treated with biotinylated small molecule ligands for 30 minutes at room temperature to generate affinity resins for kinase assays. The liganded beads were blocked with excess biotin and washed with blocking buffer (SeaBlock (Pierce), 1% BSA, 0.05% Tween 20, 1 mM DTT) to remove unbound ligand and to reduce non-specific binding. Binding reactions were assembled by combining kinases, liganded affinity beads, and test compounds in 1× binding buffer (20% SeaBlock, 0.17×PBS, 0.05% Tween 20, 6 mM DTT). Test compounds were prepared as 111× stocks in 100% DMSO. Kds were determined using an 11-point 3-fold compound dilution series with three DMSO control points. All compounds for Kd measurements are distributed by acoustic transfer (non-contact dispensing) in 100% DMSO. The compounds were then diluted directly into the assays such that the final concentration of DMSO was 0.9%. All reactions performed in polypropylene 384-well plate. Each was a final volume of 0.02 ml. The assay plates were incubated at room temperature with shaking for 1 hour and the affinity beads were washed with wash buffer (1×PBS, 0.05% Tween 20). The beads were then re-suspended in elution buffer (1×PBS, 0.05% Tween 20, 0.5 μM nonbiotinylated affinity ligand) and incubated at room temperature with shaking for 30 minutes. The kinase concentration in the eluates was measured by qPCR.
An 11-point 3-fold serial dilution of each test compound was prepared in 100% DMSO at 100× final test concentration and subsequently diluted to 1× in the assay (final DMSO concentration=1%). Most Kds were determined using a compound top concentration=30,000 nM. If the initial Kd determined was <0.5 nM (the lowest concentration tested), the measurement was repeated with a serial dilution starting at a lower top concentration.
Binding constants (Kds) were calculated with a standard dose-response curve using the Hill equation: […]
The Hill Slope was set to −1.
Curves were fitted using a non-linear least square fit with the Levenberg-Marquardt algorithm.

[1] = Metabolic stability test, HLM; format: in vitro ADME; conditions: human, liver microsomes; for CLint scaled at 1 μM: pH 7.4, read-out: Cl (mL/min/kg) HLM; for half-life at 1 μM: pH 7.4, read-out: T1/2 (min) HLM
Description: (§1) • 1. Buffers: • Buffer A: 1.0 L of 0.1 M monobasic Potassium Phosphate buffer containing 1.0 mM EDTA • Buffer B: 1.0 L of 0.1 M Dibasic Potassium Phosphate buffer containing 1.0 mM EDTA • Buffer C: 0.1 M Potassium Phosphate buffer, 1.0 mM EDTA, pH 7.4 by titrating 700 mL of buffer B with buffer A while monitoring with the pH meter. • 2. Reference compounds (Ketanserin) and test compounds spiking solution: • 500 μM spiking solution: add 10 μL of 10 mM DMSO stock solution into 190 μL ACN. • 1.5 μM spiking solution in microsomes (0.75 mg/mL): add 1.5 μL of 500 μM spiking solution and 18.75 μL of 20 mg/mL liver microsomes into 479.75 μL of Buffer C on ice. • 3. Prepare NADPH stock solution (6 mM) by dissolving NADPH into buffer C. • 4. Dispense 30 μL of 1.5 μM spiking solution containing 0.75 mg/mL microsomes solution to the assay plates designated for different time points (0-, 5-, 15-, 30-, 45-min) on ice. • 5. For 0-min time point, add 135 μL of ACN containing IS to the wells of 0-min plate and then add 15 μL of NADPH stock solution (6 mM). • 6. Pre-incubate all other plates at 37° C. for 5 minutes. • 7. Add 15 μL of NADPH stock solution (6 mM) to the plates to start the reaction and timing. • 8. At 5-min, 15-min, 30-min, and 45-min, add 135 μL of ACN containing IS to the wells of corresponding plates, respectively, to stop the reaction. • 9. After quenching, shake the plates at the vibrator (IKA, MTS 2/4) for 10 min (600 rpm/min) and then centrifuge at 5594 g for 15 min (ThermoMultifuge×3R). • 10. Transfer 50 μL of the supernatant from each well into a 96-well sample plate containing 50 μL of ultra pure water (Millipore, ZMQS50F01) for LC/MS analysis.

[2] = Metabolic stability test, RLM; format: in vitro ADME; conditions: rat, liver microsomes; for CLint scaled at 1 μM: pH 7.4, read-out: Cl (mL/min/kg) RLM; for half-life at 1 μM: pH 7.4, read-out: T1/2 (min) RLM
Description: as §1

[3] = Metabolic stability test, DLM; format: in vitro ADME; conditions: dog, liver microsomes; for CLint scaled at 1 μM: pH 7.4, read-out: Cl (mL/min/kg) DLM; for half-life at 1 μM: pH 7.4, read-out: T1/2 (min) DLM
Description: as §1

Chain of RIP2 kinase (O43353 whole entry): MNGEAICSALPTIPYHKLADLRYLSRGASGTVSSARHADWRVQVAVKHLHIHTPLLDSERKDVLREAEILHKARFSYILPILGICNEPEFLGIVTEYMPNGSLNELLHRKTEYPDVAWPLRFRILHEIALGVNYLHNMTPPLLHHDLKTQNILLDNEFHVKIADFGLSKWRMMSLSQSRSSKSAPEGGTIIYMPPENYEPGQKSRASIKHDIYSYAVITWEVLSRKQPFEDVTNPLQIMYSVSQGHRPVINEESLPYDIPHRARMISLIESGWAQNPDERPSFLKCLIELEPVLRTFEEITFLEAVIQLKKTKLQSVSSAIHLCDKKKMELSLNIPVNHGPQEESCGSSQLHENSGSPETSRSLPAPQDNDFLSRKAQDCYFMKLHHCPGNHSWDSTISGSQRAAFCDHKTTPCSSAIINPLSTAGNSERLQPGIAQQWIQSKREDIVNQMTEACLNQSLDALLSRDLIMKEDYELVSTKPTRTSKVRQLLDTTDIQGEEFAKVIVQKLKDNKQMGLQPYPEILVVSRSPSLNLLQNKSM

SMILES	pKd (RIP2 kinase)	CLint scaled at 1 μM [1] [mL/min/kg]	half-life at 1 μM [1] [min]	CLint scaled at 1 μM [2] [mL/min/kg]	half-life at 1 μM [2] [min]	CLint scaled at 1 μM [3] [mL/min/kg]	half-life at 1 μM [3] [min]
COc1cc2nccc(Nc3ccc4scnc4c3)c2cc1P(C)(C)=O [A6]	8.51	2.97	586	25.9	95.7	5.21	664
CP(C)(=O)c1cc2c(Nc3ccc4scnc4c3)ccnc2cc1OCCO [A7, (4-(benzo[d]thiazol-5-ylamino)-7-(2-hydroxyethoxy)quinolin-6-yl)dimethylphosphine oxide]	8.24	4.13	421	17	146	2.58	1340
COCCOc1cc2nccc(Nc3ccc4scnc4c3)c2cc1P(C)(C)=O [A8]	8.70	15.9	109	25.9	95.7	13.7	253
CC1(COc2cc3nccc(Nc4ccc5scnc5c4)c3cc2P(C)(C)=O)COC1 [A9]	8.68	33.5	52	63.9	38.9	30.1	115
CP(C)(=O)c1cc2c(Nc3ccc4scnc4c3)ccnc2cc1O[C@H]1CCOC1 [A14]	8.52	22.9	75.8	38.6	64.4	5.58	619
CP(C)(=O)c1cc2c(Nc3ccc4scnc4c3)ccnc2cc1O[C@@H]1CCOC1 [A15]	8.52	19.6	88.6	49.5	50.2	4.16	831
CP(C)(=O)c1cc2c(Nc3ccc4scnc4c3)ccnc2cc1OC1COC1 [A16]	8.42	9.98	174	16.9	147	–	–
CP(C)(=O)c1cc2c(Nc3ccc4scnc4c3)ccnc2cc1OC(F)(F)F [A24]	8.28	–	–	–	–	–	–
